Results: patent US20250082763A1, “COMBINATION DRUG FOR TREATING TRIPLE-NEGATIVE BREAST CANCER” (HINOVA PHARMACEUTICALS INC., priority 2022, published 2025)
Like-named read-outs stand apart in the source and are kept apart here. Values belong to the compound of their own block, whether it stands above or below them.

Tests used:
Assay type in all cases: cell-based
MDA-MB-453 cells [1] = assay: Inhibition of proliferation of MDA-MB-453 cells (CCK-8 or CTG, 7-10 days); conditions: for IC50: co-incubation 7-10 days, CCK-8 or CTG, read-out: IC50 values against MDA-MB-453 cells
Experimental: Triple negative breast cancer MDA-MB-453 cells in logarithmic growth stage were inoculated into a 96-well plate at a concentration of 4×10^3 cells/well, and then incubated in an incubator at 37° C., 5% CO2, and saturated humidity for 24 h or 48 h. To the negative control well, was added RPMI 1640 cell medium containing 10% fetal bovine serum in the same volume as the drug. After cultured for 24 h or 48 h, to the 96-well plate, were added AR PROTACs compounds 162, 177, 230, 259, 279, 281, 282, 325, 357, 400, ARV-110, ARV-766 and AR inhibitor HC-1119, respectively. The concentrations of compounds 177, 230, 259, 279, 281, 282, 325, 357, 400, ARV-110, and ARV-766 are 0 μM, 0.002 μM, 0.005 μM, 0.014 μM, 0.041 μM, 0.123 μM, 0.370 μM, 1.111 μM, 3.333 μM or 10 μM; while the concentrations of HC-1119 are 0 μM, 1.23 μM, 3.70 μM, 11.11 μM, 33.33 μM or 100 μM.
(§1) After addition of the drugs and co-incubation for 7-10 days, 10 μL of CCK-8 was added to each well, and then the plate was further cultured for 2 h. The absorbance value (OD) of each well was measured using a microplate reader at a wavelength of 450 nm. The survival rate was calculated using Prism software, the relative survival rate=(OD value of drug well/OD value of control well)×100%. Alternatively, 100 μL of medium was removed from each well, and then 50 μL of CTG was added. The plate was shaken in the dark for 2 min, allowed to stand for 10 min, and then measured using a microplate reader in Luminescence mode. Prism software was used to calculate the survival rate, the relative survival rate=(the RLU value of drug well/the RLU value of control well)×100%.

[2] = system: AR+ TNBC cells (MDA-MB-453, SUM159PT and MFM-223) and AR- TNBC (MDA-MB-468 and HCC1937); assay: Antiproliferation in AR positive and negative TNBC cells (summary over the cell line panel); conditions: MDA-MB-453, SUM159PT, MFM-223, MDA-MB-468, HCC1937
Experimental: (§2) For MDA-MB-453, MFM-223, SUM159PT, MDA-MB-468, and HCC1937, 4,000, 3,000, 1,000, 3,000, and 3,000 cells were plated per well in 96-well microplates (Corning Inc), respectively. Cells were treated with serial dilutions of tested compounds with the maximum working concentration of 10 μM. Cell survival was measured 5 days later using a CellTiter-Glo luminescent cell viability assay kit (Promega Corporation). Luminescence was recorded by FLUOstar Omega microplate reader (BMG Labtech). Half maximal inhibitory concentration (IC50) was determined with GraphPad Prism using baseline correction (by normalizing to dimethyl sulfoxide (DMSO) control)

HCC1937 = assay: Antiproliferation, CellTiter-Glo, 5 days, HCC1937; conditions: HCC1937, AR− TNBC
Experimental: as §2

SUM159PT = assay: Antiproliferation, CellTiter-Glo, 5 days, SUM159PT; conditions: AR+ TNBC
Experimental: as §2, with “Cells” for “For MDA-MB-453, MFM-223, SUM159PT, MDA-MB-468, and HCC1937, 4,000, 3,000, 1,000, 3,000, and 3,000 cells were plated per well in 96-well microplates (Corning Inc), respectively. Cells”

MDA-MB-453 = assay: Antiproliferation, CellTiter-Glo, 5 days, MDA-MB-453; conditions: MDA-MB-453, AR+ TNBC
Experimental: as §2

MFM-223 = assay: Antiproliferation, CellTiter-Glo, 5 days, MFM-223; conditions: MFM-223, AR+ TNBC
Experimental: as §2

MDA-MB-468 = assay: Antiproliferation, CellTiter-Glo, 5 days, MDA-MB-468; conditions: MDA-MB-468, AR− TNBC
Experimental: as §2

MDA-MB-453 cells [3] = assay: Combination with PI3K inhibitor Alpelisib, proliferation of MDA-MB-453 cells, Combination Index; conditions: molar ratio to Alpelisib 1:27-9:1, 7 days
Experimental: (§3) Triple negative breast cancer MDA-MB-453 cells in logarithmic growth stage were inoculated into a 96-well plate at a concentration of 4×10^3 cells/well, and then incubated in an incubator at 37° C., 5% CO2, and saturated humidity for 24 h. To the negative control wells, were added RPMI 1640 cell culture medium containing 10% fetal bovine serum in the same volume as the drug. After cultured for 24 h, to the 96-well plate, were sequentially added AR PROTACs compounds 279, 281, 282, ARV-110, ARV-766 and PI3K inhibitor Alpelisib, respectively.
as §1, with “7” for “7-10”

MDA-MB-453 cells [4] = assay: Combination with PI3K inhibitor Duvelisib, proliferation of MDA-MB-453 cells, Combination Index; conditions: molar ratio to Duvelisib 1:30-1:1.111, 7-10 days
Experimental: as §3, with “ARV-110” for “ARV-110, ARV-766”, “Duvelisib,” for “Alpelisib,”
as §1, with “adding” for “addition of”, “co-incubating” for “co-incubation”

MDA-MB-453 cells [5] = assay: Combination with PI3K inhibitor Idelalisib, proliferation of MDA-MB-453 cells, Combination Index; conditions: molar ratio to Idelalisib 1:270-1:3.333, 7-10 days
Experimental: as §3, with “Idelalisib,” for “Alpelisib,”
as §1, with “adding” for “addition of”, “co-incubating” for “co-incubation”

MDA-MB-453 cells [6] = assay: Combination with chemotherapeutic drug Paclitaxel, proliferation of MDA-MB-453 cells, Combination Index; conditions: molar ratio to Paclitaxel 20:1-5000:1, 7 days
Experimental: as §3, with “ARV-110” for “ARV-110, ARV-766”, “chemotherapeutic drug Paclitaxel,” for “PI3K inhibitor Alpelisib,”
as §1, with “adding” for “addition of”, “co-incubating” for “co-incubation”, “7” for “7-10”

SMILES: [2H]C([2H])([2H])NC(=O)c1ccc(N2C(=S)N(c3ccc(C#N)c(C(F)(F)F)c3)C(=O)C2(C)C)cc1F [HC-1119]
inhibitory effect on the proliferation of MDA-MB-453 cells (MDA-MB-453 cells [1]): weak inhibitory effect
anti-proliferation activity in all five cell lines [2]: failed to show anti-proliferation activity

IC50 (HCC1937): > 10 µM
IC50 (MDA-MB-453 cells [1]): > 2 µM
IC50 (MDA-MB-453): > 10 µM
IC50 (MDA-MB-468): > 10 µM
SMILES: CNC(=O)c1ccc(N2C(=S)N(c3ccc(C#N)c(C(F)(F)F)c3)C(=O)C2(C)C)cc1F [HC-1119]
IC50 (SUM159PT): > 10 µM
IC50 (MFM-223): > 10 µM

IC50 (MDA-MB-453 cells [1]; Homo sapiens): > 2 µM
SMILES: N#Cc1ccc(O[C@H]2CC[C@H](NC(=O)c3ccc(N4CCC(CN5CCC6(CC5)CN(c5ccc7c(c5)C(=O)N(C5CCC(=O)NC5=O)C7=O)C6)CC4)nn3)CC2)cc1Cl (stereo partly drawn) [Compound 230]

IC50 (MDA-MB-453 cells [1]; Homo sapiens): ≤ 2 µM
SMILES: CC1(C)[C@H](Oc2ccc(C#N)c(Cl)c2)C(C)(C)[C@@H]1N1Cc2nc(C#C[C@H]3C[C@H](N4CCN(c5cc6c(cc5F)C(=O)N(C5CCC(=O)NC5=O)C6=O)CC4)C3)ccc2C1=O (stereo partly drawn) [Compound 357]

IC50 (MDA-MB-453 cells [1]; Homo sapiens): ≤ 2 µM
SMILES: N#Cc1ccc(O[C@H]2CC[C@H](NC(=O)c3ccc(N4CCC(N5CCC6(CC5)CN(c5ccc7c(c5)C(=O)N(C5CCC(=O)NC5=O)C7=O)C6)CC4)nn3)CC2)cc1Cl (stereo partly drawn) [Compound 281]
effect of the combination with Alpelisib on inhibiting proliferation (CI<1 = synergistic) (MDA-MB-453 cells [3]): synergistic effect
effect of the combination with Duvelisib on inhibiting proliferation (CI<1 = synergistic) (MDA-MB-453 cells [4]): synergistic effect
effect of the combination with Idelalisib on inhibiting proliferation (CI<1 = synergistic) (MDA-MB-453 cells [5]): synergistic effect
effect of the combination with Paclitaxel on inhibiting proliferation (CI<1 = synergistic) (MDA-MB-453 cells [6]): synergistic effect

IC50 (MDA-MB-453 cells [1]; Homo sapiens): > 2 µM
SMILES: N#Cc1ccc(O[C@H]2CC[C@H](NC(=O)c3ccc(N4CC5CN(CC6CCN(c7cc8c(cc7F)C(=O)N(C7CCC(=O)NC7=O)C8=O)CC6)CC5C4)nn3)CC2)cc1Cl (stereo partly drawn) [Compound 259]

IC50 (MDA-MB-453 cells [1]; Homo sapiens): ≤ 2 µM
SMILES: COc1cc(O[C@H]2C(C)(C)[C@H](N3Cc4nc(C#C[C@H]5CC[C@H](N6CCN(c7ccc8c(c7)C(=O)N(C7CCC(=O)NC7=O)C8=O)CC6)CC5)ccc4C3=O)C2(C)C)ccc1C#N (stereo partly drawn) [Compound 400]

IC50 (HCC1937; Homo sapiens, 120 h): > 10 µM
IC50 (MDA-MB-453 cells [1]; Homo sapiens): ≤ 2 µM
IC50 (MDA-MB-453; Homo sapiens, 120 h): 1.1 µM
IC50 (MDA-MB-468; Homo sapiens, 120 h): > 10 µM
SMILES: COc1cc(O[C@H]2C(C)(C)[C@H](NC(=O)c3ccc(N4CCC(CN5CCN(c6ccc(C(=O)N[C@H]7CCC(=O)NC7=O)c(F)c6)CC5)CC4)cc3)C2(C)C)ccc1C#N [ARV-766]
IC50 (SUM159PT; Homo sapiens, SUM-159-PT, 120 h): 0.38 µM
effect of the combination with Alpelisib on inhibiting proliferation (CI<1 = synergistic) (MDA-MB-453 cells [3]): synergistic effect
IC50 (MFM-223; Homo sapiens, 120 h): 5.4 µM
effect of the combination with Idelalisib on inhibiting proliferation (CI<1 = synergistic) (MDA-MB-453 cells [5]): synergistic effect

IC50 (MDA-MB-453 cells [1]; Homo sapiens): > 2 µM
SMILES: N#Cc1ccc(O[C@H]2CC[C@H](NC(=O)c3ccc(N4CCC5(CCN(CC6CCN(c7cc8c(cc7F)C(=O)N(C7CCC(=O)NC7=O)C8=O)CC6)C5)C4)nn3)CC2)cc1Cl (stereo partly drawn) [Compound 162]

IC50 (MDA-MB-453 cells [1]; Homo sapiens): ≤ 2 µM
SMILES: N#Cc1ccc(O[C@H]2CC[C@H](NC(=O)c3ccc(N4CC5(CCN(CC6CCN(c7ccc8c(c7)C(=O)N(C7CCC(=O)NC7=O)C8=O)CC6)CC5)C4)nn3)CC2)cc1Cl (stereo partly drawn) [Compound 282]
effect of the combination with Alpelisib on inhibiting proliferation (CI<1 = synergistic) (MDA-MB-453 cells [3]): synergistic effect
effect of the combination with Duvelisib on inhibiting proliferation (CI<1 = synergistic) (MDA-MB-453 cells [4]): synergistic effect
effect of the combination with Idelalisib on inhibiting proliferation (CI<1 = synergistic) (MDA-MB-453 cells [5]): synergistic effect
effect of the combination with Paclitaxel on inhibiting proliferation (CI<1 = synergistic) (MDA-MB-453 cells [6]): synergistic effect

IC50 (MDA-MB-453 cells [1]; Homo sapiens): > 2 µM
SMILES: N#Cc1ccc(O[C@H]2CC[C@H](NC(=O)c3cnc(N4C[C@@H]5[C@@H](CN6CCN(c7ccc8c(c7)C(=O)N(C7CCC(=O)NC7=O)C8=O)CC6)[C@@H]5C4)cn3)CC2)cc1Cl (stereo partly drawn) [Compound 177]

IC50 (MDA-MB-453 cells [1]; Homo sapiens): > 2 µM
SMILES: CC1(C)[C@H](Oc2ccc(C#N)c(Cl)c2)C(C)(C)[C@H]1N1Cc2nc(C#C[C@H]3CC[C@H](N4CCN(c5ccc6c(c5)C(=O)N(C5CCC(=O)NC5=O)C6=O)CC4)CC3)ccc2C1=O (stereo partly drawn) [Compound 325]
